# Experimental data from patent US11744798B2, “Injectable pharmaceutical formulation” (UPM-Kymmene Corporation, priority 2019, dated 2023).
# Columns and labels:
# [1] = water at 25° C.; cited from earlier work
# [2] = Cumulative release study of CPF from NFC depots with solvents; assay type: physicochemical
# Description: Cumulative release study aiming to increase the release rate of CPF and receive close to 100% cumulative result for NFC-formulations within 7 days. Following detailed tasks were performed: • Two solvents, DMSO (Dimethyl sulfoxide) and NMP (N-methyl-2-pyrrolidone), in addition to H2O were used to enhance release of CPF • 6% anionic and 1.5% native NFC were studied • Study included formulation and short in vitro dissolution studies for NFC-API depots to follow cumulative release
# Cumulative release study aiming to increase cumulative result for NFC-formulations was performed with CPF, as it had clearly lower cumulative release results in previous experiments compared to MLX. 6% anionic and 1.5% native NFC were studied. Two solvents, DMSO (dimethyl sulfoxide) and NMP (N-methyl-2-pyrrolidone), in addition to H2O were used to enhance the release of CPF. The study included formulation and short in vitro dissolution studies for NFC-API depots to follow cumulative release (FIG. 7). Depots contained 50% of solvent and 50% of NFC.
# However, the increase was most apparent within the first hours and first day of study, which after the release reverted to the level of pure NFC formulations.
effect on release of CPF ([2]; 50% DMSO in NFC depot),effect on release of CPF ([2]; 50% NMP in NFC depot),Compound,solubility in water [1]
,,Cc1cnc(NC(=O)C2=C(O)c3ccccc3S(=O)(=O)N2C)s1 [Meloxicam],7.15 µg/mL
increased the release,increased the release,CC(C(=O)O)c1ccc2c(c1)[nH]c1ccc(Cl)cc12 (stereo not drawn) [Carprofen],
